Converted amounts (≈) assume the structure as drawn.
Tests used:
[1] = tested on: Staphylococcus epidermidis; test: Antibacterial activity against Staphylococcus epidermidis ATCC 35547 assessed as effect on planktonic growth at 5.5 ug/ml after 20 hrs relative to control; type: functional
[2] = tested on: Staphylococcus epidermidis; test: Antibacterial activity against Staphylococcus epidermidis ATCC 35547 assessed as effect on planktonic growth at 87.5 ug/ml after 20 hrs relative to control; type: functional
Streptococcus mutans [3] = test: Antibacterial activity against Streptococcus mutans ATCC 25175 assessed as effect on planktonic growth at 0.34 ug/ml after 20 hrs relative to control; type: functional
[4] = tested on: Staphylococcus epidermidis; test: Antibacterial activity against Staphylococcus epidermidis ATCC 35547 assessed as effect on planktonic growth at 21.9 ug/ml after 20 hrs relative to control; type: functional
Pseudomonas aeruginosa [5] = test: Antibacterial activity against Pseudomonas aeruginosa ATCC 27853 assessed as effect on planktonic growth at 0.34 ug/ml after 20 hrs relative to control; type: functional
Pseudomonas aeruginosa [6] = test: Antibacterial activity against Pseudomonas aeruginosa ATCC 27853 assessed as effect on planktonic growth at 43.8 ug/ml after 20 hrs relative to control; type: functional
Pseudomonas aeruginosa [7] = test: Antibacterial activity against Pseudomonas aeruginosa ATCC 27853 assessed as effect on planktonic growth at 2.73 ug/ml after 20 hrs relative to control; type: functional
Staphylococcus aureus [8] = test: Antibacterial activity against Staphylococcus aureus ATCC 25923 assessed as effect on planktonic growth at 0.68 ug/ml after 20 hrs relative to control; type: functional
Streptococcus mutans [9] = test: Antibacterial activity against Streptococcus mutans ATCC 25175 assessed as effect on planktonic growth at 0.68 ug/ml after 20 hrs relative to control; type: functional
Streptococcus mutans [10] = test: Antibacterial activity against Streptococcus mutans ATCC 25175 assessed as effect on planktonic growth at 10.9 ug/ml after 20 hrs relative to control; type: functional
[11] = tested on: Staphylococcus epidermidis; test: Antibacterial activity against Staphylococcus epidermidis ATCC 35547 assessed as effect on planktonic growth at 43.8 ug/ml after 20 hrs relative to control; type: functional
Staphylococcus aureus [12] = test: Antibacterial activity against Staphylococcus aureus ATCC 25923 assessed as inhibition of biofilm formation at 44 ug/ml after 20 hrs by crystal-violet staining method relative to control; type: functional; settings: ATCC 25923, 20 h
Streptococcus mutans [13] = test: Antibacterial activity against Streptococcus mutans ATCC 25175 assessed as effect on planktonic growth at 1.37 ug/ml after 20 hrs relative to control; type: functional
Staphylococcus aureus [14] = test: Antibacterial activity against Staphylococcus aureus ATCC 25923 assessed as inhibition of biofilm formation after 20 hrs by crystal-violet staining method; type: functional, organism-based; settings: ATCC 25923, 20 h
Staphylococcus aureus [15] = test: Antibacterial activity against Staphylococcus aureus ATCC 25923 assessed as effect on planktonic growth at 21.9 ug/ml after 20 hrs relative to control; type: functional
[16] = tested on: Staphylococcus epidermidis; test: Antibacterial activity against Staphylococcus epidermidis ATCC 35547 assessed as effect on planktonic growth at 10.9 ug/ml after 20 hrs relative to control; type: functional
[17] = tested on: Staphylococcus epidermidis; test: Antibacterial activity against Staphylococcus epidermidis ATCC 35547 assessed as effect on planktonic growth at 1.37 ug/ml after 20 hrs relative to control; type: functional
Staphylococcus aureus [18] = test: Antibacterial activity against Staphylococcus aureus ATCC 25923 assessed as effect on planktonic growth at 1.37 ug/ml after 20 hrs relative to control; type: functional
[19] = tested on: Staphylococcus epidermidis; test: Antibacterial activity against Staphylococcus epidermidis ATCC 35547 assessed as effect on planktonic growth at 0.68 ug/ml after 20 hrs relative to control; type: functional
Streptococcus mutans [20] = test: Antibacterial activity against Streptococcus mutans ATCC 25175 assessed as effect on planktonic growth at 43.8 ug/ml after 20 hrs relative to control; type: functional
Staphylococcus aureus [21] = test: Antibacterial activity against Staphylococcus aureus ATCC 25923 assessed as effect on planktonic growth at 43.8 ug/ml after 20 hrs relative to control; type: functional
Streptococcus mutans [22] = test: Antibacterial activity against Streptococcus mutans ATCC 25175 assessed as effect on planktonic growth at 2.73 ug/ml after 20 hrs relative to control; type: functional
Staphylococcus aureus [23] = test: Antibacterial activity against Staphylococcus aureus ATCC 25923 assessed as effect on planktonic growth at 0.17 ug/ml after 20 hrs relative to control; type: functional
Streptococcus mutans [24] = test: Antibacterial activity against Streptococcus mutans ATCC 25175 assessed as effect on planktonic growth at 87.5 ug/ml after 20 hrs relative to control; type: functional
Streptococcus mutans [25] = test: Antibacterial activity against Streptococcus mutans ATCC 25175 assessed as effect on planktonic growth at 21.9 ug/ml after 20 hrs relative to control; type: functional
Pseudomonas aeruginosa [26] = test: Antibacterial activity against Pseudomonas aeruginosa ATCC 27853 assessed as effect on planktonic growth at 0.68 ug/ml after 20 hrs relative to control; type: functional
[27] = tested on: Staphylococcus epidermidis; test: Antibacterial activity against Staphylococcus epidermidis ATCC 35547 assessed as effect on planktonic growth at 0.17 ug/ml after 20 hrs relative to control; type: functional
Streptococcus mutans [28] = test: Antibacterial activity against Streptococcus mutans ATCC 25175 assessed as effect on planktonic growth at 0.17 ug/ml after 20 hrs relative to control; type: functional
Staphylococcus aureus [29] = test: Antibacterial activity against Staphylococcus aureus ATCC 25923 assessed as effect on planktonic growth at 0.34 ug/ml after 20 hrs relative to control; type: functional
Pseudomonas aeruginosa [30] = test: Antibacterial activity against Pseudomonas aeruginosa ATCC 27853 assessed as effect on planktonic growth at 5.5 ug/ml after 20 hrs relative to control; type: functional
Pseudomonas aeruginosa [31] = test: Antibacterial activity against Pseudomonas aeruginosa ATCC 27853 assessed as effect on planktonic growth at 87.5 ug/ml after 20 hrs relative to control; type: functional
Staphylococcus aureus [32] = test: Antibacterial activity against Staphylococcus aureus ATCC 25923 assessed as effect on planktonic growth at 10.9 ug/ml after 20 hrs relative to control; type: functional
Pseudomonas aeruginosa [33] = test: Antibacterial activity against Pseudomonas aeruginosa ATCC 27853 assessed as effect on planktonic growth at 10.9 ug/ml after 20 hrs relative to control; type: functional
Pseudomonas aeruginosa [34] = test: Antibacterial activity against Pseudomonas aeruginosa ATCC 27853 assessed as effect on planktonic growth at 0.17 ug/ml after 20 hrs relative to control; type: functional
Pseudomonas aeruginosa [35] = test: Antibacterial activity against Pseudomonas aeruginosa ATCC 27853 assessed as inhibition of biofilm formation after 20 hrs by crystal-violet staining method; type: functional, organism-based; settings: for IC50: ATCC 27853, 20 h
[36] = tested on: Staphylococcus epidermidis; test: Antibacterial activity against Staphylococcus epidermidis ATCC 35547 assessed as effect on planktonic growth at 0.34 ug/ml after 20 hrs relative to control; type: functional
Streptococcus mutans [37] = test: Antibacterial activity against Streptococcus mutans ATCC 25175 assessed as effect on planktonic growth at 5.5 ug/ml after 20 hrs relative to control; type: functional
Staphylococcus aureus [38] = test: Antibacterial activity against Staphylococcus aureus ATCC 25923 assessed as effect on planktonic growth at 5.5 ug/ml after 20 hrs relative to control; type: functional
Staphylococcus aureus [39] = test: Antibacterial activity against Staphylococcus aureus ATCC 25923 assessed as effect on planktonic growth at 2.73 ug/ml after 20 hrs relative to control; type: functional
Pseudomonas aeruginosa [40] = test: Antibacterial activity against Pseudomonas aeruginosa ATCC 27853 assessed as effect on planktonic growth at 21.9 ug/ml after 20 hrs relative to control; type: functional
[41] = tested on: Staphylococcus epidermidis; test: Antibacterial activity against Staphylococcus epidermidis ATCC 35547 assessed as inhibition of biofilm formation after 20 hrs by crystal-violet staining method; type: functional, organism-based
Pseudomonas aeruginosa [42] = test: Antibacterial activity against Pseudomonas aeruginosa ATCC 27853 assessed as effect on planktonic growth at 1.37 ug/ml after 20 hrs relative to control; type: functional
Staphylococcus aureus [43] = test: Antibacterial activity against Staphylococcus aureus ATCC 25923 assessed as effect on planktonic growth at 87.5 ug/ml after 20 hrs relative to control; type: functional
[44] = tested on: Staphylococcus epidermidis; test: Antibacterial activity against Staphylococcus epidermidis ATCC 35547 assessed as effect on planktonic growth at 2.73 ug/ml after 20 hrs relative to control; type: functional
[45] = tested on: Staphylococcus epidermidis; test: Induction of biofilm formation in Staphylococcus epidermidis ATCC 35547 at 87.5 ug/ml after 20 hrs by crystal-violet staining method relative to control; type: organism-based

## COc1ccc(Cl)cc1C1=C(Br)C(=O)N(CC(C)C)C1(O)Cc1ccccc1Br (stereo not given)
[1]
  Activity: 6.4%
[2]
  Activity: 17.6%
Streptococcus mutans [3]
  Activity: -13.8%
[4]
  Activity: 13.2%
Pseudomonas aeruginosa [5]
  Activity: -9.6%
Pseudomonas aeruginosa [6]
  Activity: 5.7%
Pseudomonas aeruginosa [7]
  Activity: -13.8%
Staphylococcus aureus [8]
  Activity: 3.7%
Streptococcus mutans [9]
  Activity: -7.7%
Streptococcus mutans [10]
  Activity: 9%
[11]
  Activity: 28.8%
Staphylococcus aureus [12]
  inhibition at 44 µg/mL: 53.1%
Streptococcus mutans [13]
  Activity: 3.5%
Staphylococcus aureus [14]
  IC50: 6.8 µM
Staphylococcus aureus [15]
  Activity: 4.2%
[16]
  Activity: 4.2%
[17]
  Activity: 7.8%
Staphylococcus aureus [18]
  Activity: 5.9%
[19]
  Activity: 9.4%
Streptococcus mutans [20]
  Activity: 24.4%
Staphylococcus aureus [21]
  Activity: 12.8%
Streptococcus mutans [22]
  Activity: 1.6%
Staphylococcus aureus [23]
  Activity: 8.4%
Streptococcus mutans [24]
  Activity: 24.4%
Streptococcus mutans [25]
  Activity: 15.4%
Pseudomonas aeruginosa [26]
  Activity: -6.4%
[27]
  Activity: 9.4%
Streptococcus mutans [28]
  Activity: -16.1%
Staphylococcus aureus [29]
  Activity: 6.2%
Pseudomonas aeruginosa [30]
  Activity: -13.5%
Pseudomonas aeruginosa [31]
  Activity: 24.8%
Staphylococcus aureus [32]
  Activity: -2.4%
Pseudomonas aeruginosa [33]
  Activity: -14.9%
Pseudomonas aeruginosa [34]
  Activity: -7.2%
Pseudomonas aeruginosa [35]
  inhibition: Dose-dependent effect
  IC50: > 87.5 µg/mL
[36]
  Activity: 2.6%
Streptococcus mutans [37]
  Activity: 9%
Staphylococcus aureus [38]
  Activity: -9%
Staphylococcus aureus [39]
  Activity: -1.3%
Pseudomonas aeruginosa [40]
  Activity: -9.2%
[41]
  inhibition: Dose-dependent effect
[41]; ATCC 35547, 20 h
  IC50: 83.4 µg/mL (≈ 153 µM)
Pseudomonas aeruginosa [42]
  Activity: -5.6%
Staphylococcus aureus [43]
  Activity: 14.3%
[44]
  Activity: 21.5%

## COc1cccc(CC2(O)C(c3cc(Cl)ccc3OC)=C(Br)C(=O)N2CC(C)C)c1 (stereo not given)
[1]
  Activity: 6.4%
[2]
  Activity: 14.5%
Streptococcus mutans [3]
  Activity: -12.5%
[4]
  Activity: 6.9%
Pseudomonas aeruginosa [5]
  Activity: -5.8%
Pseudomonas aeruginosa [6]
  Activity: -2.3%
Pseudomonas aeruginosa [7]
  Activity: -18.9%
Staphylococcus aureus [8]
  Activity: -5%
Streptococcus mutans [9]
  Activity: -12.5%
Streptococcus mutans [10]
  Activity: -3.7%
[11]
  Activity: 15.7%
Streptococcus mutans [13]
  Activity: -8.7%
Staphylococcus aureus [15]
  Activity: -15.1%
[16]
  Activity: -0.3%
[17]
  Activity: 4.7%
Staphylococcus aureus [18]
  Activity: 6.8%
[19]
  Activity: 5.1%
Streptococcus mutans [20]
  Activity: 6.5%
Staphylococcus aureus [21]
  Activity: 0.7%
Streptococcus mutans [22]
  Activity: 0.3%
Staphylococcus aureus [23]
  Activity: 2%
Streptococcus mutans [24]
  Activity: 9%
Streptococcus mutans [25]
  Activity: -0.6%
Pseudomonas aeruginosa [26]
  Activity: -6.7%
[27]
  Activity: 10%
Streptococcus mutans [28]
  Activity: -14%
Staphylococcus aureus [29]
  Activity: 0.7%
Pseudomonas aeruginosa [30]
  Activity: -5.5%
Pseudomonas aeruginosa [31]
  Activity: -3.6%
Staphylococcus aureus [32]
  Activity: -9.9%
Pseudomonas aeruginosa [33]
  Activity: -3.3%
Pseudomonas aeruginosa [34]
  Activity: -4%
[45]
  Activity: 46.9%
Pseudomonas aeruginosa [35]
  inhibition: Dose-dependent effect
  IC50: 2.2 µg/mL (≈ 4.45 µM)
[36]
  Activity: 3.3%
Streptococcus mutans [37]
  Activity: 1.6%
Staphylococcus aureus [38]
  Activity: -8.1%
Staphylococcus aureus [39]
  Activity: 2.3%
Pseudomonas aeruginosa [40]
  Activity: -3.7%
[41]
  inhibition: Dose-dependent effect
Pseudomonas aeruginosa [42]
  Activity: -4.2%
Staphylococcus aureus [43]
  Activity: 22.1%
[44]
  Activity: 3.4%
